Assay results: patent US20240000794A1, “LACTAM AND LACTONE DERIVATIVES FOR USE IN THE TREATMENT OF A VIRAL INFECTION SUCH AS COVID-19” (UNIVERSITÉ CATHOLIQUE DE LOUVAIN, priority 2020, published 2024)
Read-outs that look alike come from different tables or passages of the source.

How the values were obtained:
SARS-CoV-2 [1] = type: cell-based; details: Caco-2 cells; for reduction of virus production in the supernatants: after 8, 12 and 24 h, at concentrations as low as 1μM; for reduction of SARS-Cov2 RNA levels in infected cells: after 4 hours
SARS-CoV-2 [2] = type: cell-based; details: primary bronchial epithelial cells, 10 μM or 1 μM, 48 h post-infection
HCoV-OC43 = type: cell-based; details: 10 μM, HRT-18G cells
SARS-CoV-2 [3] = type: cell-based; details: Caco-2 cells, MOI 0.01, 24 hours post-infection
SARS-CoV-2 [4] = type: cell-based; details: primary nasal epithelial cells, 10 μM or 1 μM, 48 h post-infection
SARS-CoV-2 [5] = type: cell-based; details: Calu-3 human lung cells, MOI 0.01, 24 hours post-infection
SARS-CoV-2 Mpro = SARS-CoV-2 Mpro (Severe acute respiratory syndrome coronavirus 2, UniProt P0DTD1); type: biochemical
SARS-CoV-2 [6] = type: cell-based; details: 100 μM compound, 24 hours post-infection
[7] = system: syncytia formation in SARS-CoV-2 infected Vero cells; type: cell-based
[8] = system: syncytia formation in SARS-CoV-2 infected A549-ACE2/TMPRSS2 cells; type: cell-based

SMILES | reduction of virus production in the supernatants (SARS-CoV-2 [1]) | reduction of SARS-Cov2 RNA levels in infected cells (SARS-CoV-2 [1]) | SARS-Cov2 RNA levels in infected cells (SARS-CoV-2 [2]) | virus production (supernatants titered on Vero cells) (SARS-CoV-2 [2]) | activity on HCov-OC43 (HCoV-OC43) | lowest concentration reducing the infectivity of SARS-CoV-2 (SARS-CoV-2 [3]) [nM] | SARS-Cov2 RNA levels in infected cells (SARS-CoV-2 [4]) | virus production (supernatants titered on Vero cells) (SARS-CoV-2 [4]) | lowest concentration reducing the infectivity of SARS-CoV-2 (SARS-CoV-2 [5]) [nM] | inhibition of SARS-CoV-2 Mpro (SARS-CoV-2 Mpro; 10 μM compound, Mpro at 2 μM) | inhibition of SARS-CoV-2 Mpro (SARS-CoV-2 Mpro; 100 μM compound) | infectivity of SARS-CoV2 in Vero cells (SARS-CoV-2 [6]) | syncytia formation (fusion index) [7] | syncytia formation (fusion index) [8]
O=C1CSC[C@@H](C(=O)O)N1 [lactam 2, (R)-5-oxothiomorpholine-3-carboxylic acid] | about 100 fold | about 20% | reduction in SARS-Cov2 RNA levels | reduction of virus production | active | 45 | reduction in SARS-Cov2 RNA levels | reduction of virus production | 45 | about 50% | complete inhibition | reducing the infectivity | reducing syncytia formation | reducing syncytia formation
O=C1CCC[C@@H](C(=O)O)N1 [lactam 3, (S)-6-oxopiperidine-2-carboxylic acid] | about 100 fold | about 20% |  |  |  | 15 |  |  |  |  |  |  |  | 
